Data from patent US9326506B2, “Preparation method, agricultural composition and applications of natural brassinolide analogs” (CHENGDU NEWSUN CROPSCIENCE CO., LTD, priority 2012, dated 2016).

Test system: rice
Experiment: Low temperature assay on rice seedlings
Assay type: in vivo
How it was run: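 Nine-day-old etiolated rice seedlings (grown on water at 30 °C±2 °C, dark) immersed in brassinolide analogues at 1–0.0001 mg/L or pure water, held at 1–5 °C for 24 hr. Plant height, leaf area, root weight read at 3, 6, 9, 12 days; leaf and tiller number at 12 days.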

Which results are given for CC(C)[C@H](C)[C@@H](O)[C@H](O)[C@@H](C)[C@H]1CCC2C3CC(=O)C4C[C@H](O)CC[C@]4(C)C3CC[C@@]21C (stereo partly shown) [BR4]?
Height (0.01 mg/l, 3 °C, 9 days): 7.5 cm; Weight of root (0.01 mg/l, 3 °C, 9 days): 2.9 g; Area of leaf (0.01 mg/l, 3 °C, 12 days): 13.2 cm^2; Height (0.01 mg/l, 3 °C, 12 days): 7.8 cm; Number of leaf (0.01 mg/l, 3 °C, 12 days): 3; Number of tiller (0.01 mg/l, 3 °C, 12 days): 2; Weight of root (0.01 mg/l, 3 °C, 12 days): 2.9 g; Area of leaf (0.01 mg/l, 4 °C, 3 days): 10.8 cm^2; Height (0.01 mg/l, 4 °C, 3 days): 7 cm; Weight of root (0.01 mg/l, 4 °C, 3 days): 2.5 g; Area of leaf (0.01 mg/l, 4 °C, 6 days): 12.4 cm^2; Height (0.01 mg/l, 4 °C, 6 days): 7.4 cm; Weight of root (0.01 mg/l, 4 °C, 6 days): 2.7 g; Area of leaf (0.01 mg/l, 4 °C, 9 days): 13 cm^2; Height (0.01 mg/l, 4 °C, 9 days): 7.7 cm; Weight of root (0.01 mg/l, 4 °C, 9 days): 2.9 g; Area of leaf (0.01 mg/l, 4 °C, 12 days): 13.5 cm^2; Height (0.01 mg/l, 4 °C, 12 days): 7.8 cm; Number of leaf (0.01 mg/l, 4 °C, 12 days): 3; Number of tiller (0.01 mg/l, 4 °C, 12 days): 2; Weight of root (0.01 mg/l, 4 °C, 12 days): 3.0 g; Area of leaf (0.01 mg/l, 5 °C, 3 days): 10.3 cm^2; Height (0.01 mg/l, 5 °C, 3 days): 7.2 cm; Weight of root (0.01 mg/l, 5 °C, 3 days): 2.8 g; Area of leaf (0.01 mg/l, 5 °C, 6 days): 13.1 cm^2; Height (0.01 mg/l, 5 °C, 6 days): 7.4 cm; Weight of root (0.01 mg/l, 5 °C, 6 days): 3.0 g; Area of leaf (0.01 mg/l, 5 °C, 9 days): 16.4 cm^2; Height (0.01 mg/l, 5 °C, 9 days): 7.8 cm; Weight of root (0.01 mg/l, 5 °C, 9 days): 3.4 g; Area of leaf (0.01 mg/l, 5 °C, 12 days): 17 cm^2; Height (0.01 mg/l, 5 °C, 12 days): 8.2 cm; Number of leaf (0.01 mg/l, 5 °C, 12 days): 4; Number of tiller (0.01 mg/l, 5 °C, 12 days): 3; Weight of root (0.01 mg/l, 5 °C, 12 days): 3.9 g; Area of leaf (0.1 mg/l, 1 °C, 3 days): 10 cm^2; Height (0.1 mg/l, 1 °C, 3 days): 7.1 cm; Weight of root (0.1 mg/l, 1 °C, 3 days): 2.8 g; Area of leaf (0.1 mg/l, 1 °C, 6 days): 11 cm^2; Height (0.1 mg/l, 1 °C, 6 days): 7.2 cm; Weight of root (0.1 mg/l, 1 °C, 6 days): 2.9 g; Area of leaf (0.1 mg/l, 1 °C, 9 days): 12.1 cm^2; Height (0.1 mg/l, 1 °C, 9 days): 7.3 cm; Weight of root (0.1 mg/l, 1 °C, 9 days): 3.3 g; Area of leaf (0.1 mg/l, 1 °C, 12 days): 13.1 cm^2; Height (0.1 mg/l, 1 °C, 12 days): 7.3 cm; Number of leaf (0.1 mg/l, 1 °C, 12 days): 3; Number of tiller (0.1 mg/l, 1 °C, 12 days): 3; Weight of root (0.1 mg/l, 1 °C, 12 days): 3.6 g; Area of leaf (0.1 mg/l, 2 °C, 3 days): 10.2 cm^2; Height (0.1 mg/l, 2 °C, 3 days): 7.1 cm; Weight of root (0.1 mg/l, 2 °C, 3 days): 2.8 g; Area of leaf (0.1 mg/l, 2 °C, 6 days): 11.2 cm^2; Height (0.1 mg/l, 2 °C, 6 days): 7.1 cm; Weight of root (0.1 mg/l, 2 °C, 6 days): 3.1 g; Area of leaf (0.1 mg/l, 2 °C, 9 days): 12.6 cm^2; Height (0.1 mg/l, 2 °C, 9 days): 7.3 cm; Weight of root (0.1 mg/l, 2 °C, 9 days): 3.1 g; Area of leaf (0.1 mg/l, 2 °C, 12 days): 13.2 cm^2; Height (0.1 mg/l, 2 °C, 12 days): 7.4 cm; Number of leaf (0.1 mg/l, 2 °C, 12 days): 3; Number of tiller (0.1 mg/l, 2 °C, 12 days): 3; Weight of root (0.1 mg/l, 2 °C, 12 days): 3.2 g; Area of leaf (0.1 mg/l, 3 °C, 3 days): 10.5 cm^2; Height (0.1 mg/l, 3 °C, 3 days): 7.3 cm; Weight of root (0.1 mg/l, 3 °C, 3 days): 2.5 g; Area of leaf (0.1 mg/l, 3 °C, 6 days): 12 cm^2; Height (0.1 mg/l, 3 °C, 6 days): 7.4 cm; Weight of root (0.1 mg/l, 3 °C, 6 days): 2.7 g; Area of leaf (0.1 mg/l, 3 °C, 9 days): 12.1 cm^2; Height (0.1 mg/l, 3 °C, 9 days): 7.8 cm; Weight of root (0.1 mg/l, 3 °C, 9 days): 2.7 g; Area of leaf (0.1 mg/l, 3 °C, 12 days): 13.4 cm^2; Height (0.1 mg/l, 3 °C, 12 days): 7.9 cm; Number of leaf (0.1 mg/l, 3 °C, 12 days): 3; Number of tiller (0.1 mg/l, 3 °C, 12 days): 2; Weight of root (0.1 mg/l, 3 °C, 12 days): 2.9 g; Area of leaf (0.1 mg/l, 4 °C, 3 days): 10.6 cm^2; Height (0.1 mg/l, 4 °C, 3 days): 7.3 cm; Weight of root (0.1 mg/l, 4 °C, 3 days): 2.5 g; Area of leaf (0.1 mg/l, 4 °C, 6 days): 12 cm^2; Height (0.1 mg/l, 4 °C, 6 days): 7.4 cm; Weight of root (0.1 mg/l, 4 °C, 6 days): 2.6 g; Area of leaf (0.1 mg/l, 4 °C, 9 days): 13.2 cm^2; Height (0.1 mg/l, 4 °C, 9 days): 7.8 cm; Weight of root (0.1 mg/l, 4 °C, 9 days): 2.9 g; Area of leaf (0.1 mg/l, 4 °C, 12 days): 13.4 cm^2; Height (0.1 mg/l, 4 °C, 12 days): 8 cm; Number of leaf (0.1 mg/l, 4 °C, 12 days): 3; Number of tiller (0.1 mg/l, 4 °C, 12 days): 2; Weight of root (0.1 mg/l, 4 °C, 12 days): 3.1 g; Area of leaf (0.1 mg/l, 5 °C, 3 days): 11 cm^2; Height (0.1 mg/l, 5 °C, 3 days): 7.4 cm; Weight of root (0.1 mg/l, 5 °C, 3 days): 2.9 g; Area of leaf (0.1 mg/l, 5 °C, 6 days): 12.1 cm^2; Height (0.1 mg/l, 5 °C, 6 days): 7.5 cm; Weight of root (0.1 mg/l, 5 °C, 6 days): 3.1 g; Area of leaf (0.1 mg/l, 5 °C, 9 days): 16.2 cm^2; Height (0.1 mg/l, 5 °C, 9 days): 8 cm; Weight of root (0.1 mg/l, 5 °C, 9 days): 3.5 g; Area of leaf (0.1 mg/l, 5 °C, 12 days): 17.8 cm^2; Height (0.1 mg/l, 5 °C, 12 days): 8.1 cm; Number of leaf (0.1 mg/l, 5 °C, 12 days): 3; Number of tiller (0.1 mg/l, 5 °C, 12 days): 2; Weight of root (0.1 mg/l, 5 °C, 12 days): 4.1 g; Area of leaf (1 mg/l, 1 °C, 3 days): 10 cm^2; Height (1 mg/l, 1 °C, 3 days): 6.8 cm; Weight of root (1 mg/l, 1 °C, 3 days): 2.6 g; Area of leaf (1 mg/l, 1 °C, 6 days): 11 cm^2; Height (1 mg/l, 1 °C, 6 days): 7 cm; Weight of root (1 mg/l, 1 °C, 6 days): 3.1 g; Area of leaf (1 mg/l, 1 °C, 9 days): 12.4 cm^2; Height (1 mg/l, 1 °C, 9 days): 7.1 cm; Weight of root (1 mg/l, 1 °C, 9 days): 3.2 g; Area of leaf (1 mg/l, 1 °C, 12 days): 13 cm^2; Height (1 mg/l, 1 °C, 12 days): 7.7 cm; Number of leaf (1 mg/l, 1 °C, 12 days): 3; Number of tiller (1 mg/l, 1 °C, 12 days): 3; Weight of root (1 mg/l, 1 °C, 12 days): 3.7 g; Area of leaf (1 mg/l, 2 °C, 3 days): 10.1 cm^2; Height (1 mg/l, 2 °C, 3 days): 7 cm; Weight of root (1 mg/l, 2 °C, 3 days): 2.55 g; Area of leaf (1 mg/l, 2 °C, 6 days): 11.7 cm^2; Height (1 mg/l, 2 °C, 6 days): 7.2 cm; Weight of root (1 mg/l, 2 °C, 6 days): 3.0 g; Area of leaf (1 mg/l, 2 °C, 9 days): 12 cm^2; Height (1 mg/l, 2 °C, 9 days): 7.4 cm; Weight of root (1 mg/l, 2 °C, 9 days): 3.2 g; Area of leaf (1 mg/l, 2 °C, 12 days): 13 cm^2; Height (1 mg/l, 2 °C, 12 days): 8 cm; Number of leaf (1 mg/l, 2 °C, 12 days): 3; Number of tiller (1 mg/l, 2 °C, 12 days): 3; Weight of root (1 mg/l, 2 °C, 12 days): 3.7 g; Area of leaf (1 mg/l, 3 °C, 3 days): 10.4 cm^2; Height (1 mg/l, 3 °C, 3 days): 7 cm; Weight of root (1 mg/l, 3 °C, 3 days): 2.5 g; Area of leaf (1 mg/l, 3 °C, 6 days): 12 cm^2; Height (1 mg/l, 3 °C, 6 days): 7.5 cm; Weight of root (1 mg/l, 3 °C, 6 days): 2.6 g; Area of leaf (1 mg/l, 3 °C, 9 days): 12 cm^2; Height (1 mg/l, 3 °C, 9 days): 7.7 cm; Weight of root (1 mg/l, 3 °C, 9 days): 2.6 g; Area of leaf (1 mg/l, 3 °C, 12 days): 13.2 cm^2; Height (1 mg/l, 3 °C, 12 days): 8.1 cm; Number of leaf (1 mg/l, 3 °C, 12 days): 3; Number of tiller (1 mg/l, 3 °C, 12 days): 2; Weight of root (1 mg/l, 3 °C, 12 days): 2.9 g; Area of leaf (1 mg/l, 4 °C, 3 days): 10.7 cm^2; Height (1 mg/l, 4 °C, 3 days): 7.3 cm; Weight of root (1 mg/l, 4 °C, 3 days): 2.5 g; Area of leaf (1 mg/l, 4 °C, 6 days): 12 cm^2; Height (1 mg/l, 4 °C, 6 days): 7.5 cm; Weight of root (1 mg/l, 4 °C, 6 days): 2.7 g; Area of leaf (1 mg/l, 4 °C, 9 days): 13.2 cm^2; Height (1 mg/l, 4 °C, 9 days): 7.8 cm; Weight of root (1 mg/l, 4 °C, 9 days): 3.0 g; Area of leaf (1 mg/l, 4 °C, 12 days): 14 cm^2; Height (1 mg/l, 4 °C, 12 days): 8.2 cm; Number of leaf (1 mg/l, 4 °C, 12 days): 3; Number of tiller (1 mg/l, 4 °C, 12 days): 2; Weight of root (1 mg/l, 4 °C, 12 days): 3.2 g; Area of leaf (1 mg/l, 5 °C, 3 days): 11.1 cm^2; Height (1 mg/l, 5 °C, 3 days): 7.4 cm; Weight of root (1 mg/l, 5 °C, 3 days): 2.9 g; Area of leaf (1 mg/l, 5 °C, 6 days): 13 cm^2; Height (1 mg/l, 5 °C, 6 days): 7.4 cm; Weight of root (1 mg/l, 5 °C, 6 days): 3.5 g; Area of leaf (1 mg/l, 5 °C, 9 days): 18 cm^2; Height (1 mg/l, 5 °C, 9 days): 8.1 cm; Weight of root (1 mg/l, 5 °C, 9 days): 3.7 g; Area of leaf (1 mg/l, 5 °C, 12 days): 20 cm^2; Height (1 mg/l, 5 °C, 12 days): 8.3 cm; Number of leaf (1 mg/l, 5 °C, 12 days): 3; Number of tiller (1 mg/l, 5 °C, 12 days): 2; Weight of root (1 mg/l, 5 °C, 12 days): 4.5 g
